Laboratory results as given in US20230406911A1, “COMPOSITIONS AND METHODS FOR PREVENTING, INHIBITING, DISRUPTING, OR TREATING A POLYMICROBIAL BIOFILM” (priority 2020, published 2023).

What was measured:
[1] = tested on: NRel NTHI; conditions: Mokrzan et al., 2018; cited from earlier work
[2] = tested on: NTHI; test: Antibiotic sensitivity of biofilm-resident, planktonic or NRel NTHI; format: cell-based, Nontypeable Haemophilus influenzae strain 86-028NP; conditions: for sensitivity of biofilm-resident NTHI to killing: 16 h biofilm, same concentrations as for planktonic/NRel; for sensitivity of biofilm-resident NTHI to killing / killing of planktonic NTHI at the concentration chosen for the assay: 2 h antibiotic exposure; for sensitivity of anti-IHF NRel to killing, compared with planktonic NTHI / sensitivity of anti-IHF NRel to killing, compared with biofilm-resident NTHI: NRel collected after 15 min anti-IHF IgG, TMP-SMX 0.09/0.45 μg/ml, AMC 0.30/0.15 μg/ml; for sensitivity of anti-IHF NRel to killing, compared with planktonic NTHI: 2 h (FIG. 5d, 5e); for sensitivity of anti-IHF NRel to killing, compared with biofilm-resident NTHI / sensitivity of anti-rsPilA NRel to killing, compared with biofilm-resident NTHI: 2 h, P≤0.0001; for susceptibility of time-matched anti-IHF NRel to killing, compared with planktonic NTHI: NRel collected after 2 h anti-IHF IgG, TMP-SMX 0.94/4.7 μg/ml, AMC 2.5/1.25 μg/ml (FIG. 6c, 6d); for susceptibility of time-matched anti-rsPilA NRel to killing, compared with planktonic NTHI: NRel collected after 2 h anti-rsPilA IgG, TMP-SMX 0.09/0.45 μg per ml, AMC 0.3/0.15 μg per ml (FIG. 6a, 6b); for sensitivity of anti-rsPilA NRel to killing, compared with planktonic NTHI / sensitivity of anti-rsPilA NRel to killing, compared with biofilm-resident NTHI: NRel collected after 6 h anti-rsPilA IgG, TMP-SMX 0.94/4.7 μg per ml, AMC 2.5/1.25 μg per ml; for sensitivity of anti-rsPilA NRel to killing, compared with planktonic NTHI: 2 h (FIG. 5b, 5c); for killing of planktonic NTHI at the concentration chosen for the assay: mid-log planktonic NTHI density-matched to NRel
Experimental: To avoid excessive manipulation or dilution of NRel NTHI, and to permit direct comparison of equal numbers of planktonic and NRel, Applicant adjusted the planktonic cell density to the same CFU per ml as the NRel population in each experiment as follows: NTHI were incubated statically to mid log phase growth then diluted to either 3×10^8 CFU/ml for comparison with anti-rsPilA NRel collected at 6 h, or to 2×10^8 CFU/ml for comparison with anti-IHF NRel collected at 15 min (see FIG. 1). Applicant then determined the concentrations of amoxicillin (Sigma-Aldrich, St. Louis, MO) and clavulanate (U.S. Pharmacopeia, Rockville, MD), or of trimethoprim (Sigma-Aldrich) and sulfamethoxazole (Santa Cruz Biotech, Dallas, TX) that killed approximately 25% of planktonic NTHI at each density. The same antibiotic concentrations were used for the anti-IHF or anti-rsPilA NRel, the density-matched (same CFU/ml) planktonic NTHI, and the adherent biofilm for each relevant experiment. […] Applicant then assessed killing of anti-IHF or anti-rsPilA NRel by concentrations of amoxicillin plus clavulanic acid (“augmentin”, AMC) or trimethoprim plus sulfamethoxazole (TMP-SMX) that killed 25% of the planktonic NTHI at the same density.
Anti-rsPilA or anti-IHF NRel were collected and sonicated as described above. After sonication for 2 min in a water bath sonicator to break up any NTHI aggregates, NRel or planktonic NTHI were incubated with the indicated antibiotics at 37° C. for 2 h, then serially diluted and plated on chocolate agar to quantify viable NTHI. To assay biofilm-resident NTHI, biofilms were established for 16 h at 37° C. as described above, washed twice with DPBS and incubated in sBHI supplemented with the indicated antibiotics at 37° C. After 2 h, biofilm-resident NTHI were collected by forceful pipetting, sonicated for 2 min and enumerated as described above. All experiments were performed at least three times on separate days with two or three technical replicates for each treatment and control group.

[3] = tested on: established NTHI biofilms; conditions: antibiotic at concentrations ≥4-fold below the MIC; Brockson et al., 2014; cited from earlier work
[4] = tested on: NRel M. catarrhalis; conditions: Mokrzan et al., 2018; cited from earlier work

Row | Compound | susceptibility of NRel NTHI released by anti-rsPilA, compared with growth on agar [1] | sensitivity of biofilm-resident NTHI to killing [2] | sensitivity of anti-IHF NRel to killing, compared with planktonic NTHI [2] | sensitivity of anti-IHF NRel to killing, compared with biofilm-resident NTHI [2] | susceptibility of time-matched anti-IHF NRel to killing, compared with planktonic NTHI [2] | susceptibility of time-matched anti-rsPilA NRel to killing, compared with planktonic NTHI [2] | sensitivity of anti-rsPilA NRel to killing, compared with planktonic NTHI [2] | sensitivity of anti-rsPilA NRel to killing, compared with biofilm-resident NTHI [2] | killing of planktonic NTHI at the concentration chosen for the assay [2] [%] | sensitivity to killing of NTHI biofilms co-exposed to anti-DNABII antiserum, compared to planktonic counterparts [3] | susceptibility of NRel M. catarrhalis released by anti-rsPilA, compared with growth on agar [4]
1 | trimethoprim plus sulfamethoxazole [TMP-SMX] | more susceptible | minimal sensitivity | only equally as sensitive | significantly more sensitive | equally susceptible | significantly more susceptible | significantly greater | significantly more sensitive | ~25 | – | –
2 | amoxicillin plus clavulanic acid [AMC] | – | minimal sensitivity | significantly more sensitive | significantly more sensitive | significantly more susceptible | equally susceptible | only equally as sensitive | significantly more sensitive | ~25 | significantly more sensitive | –
3 | CC1(C)S[C@@H]2[C@H](NC(=O)[C@H](N)c3ccccc3)C(=O)N2[C@H]1C(=O)O [ampicillin] | – | – | – | – | – | – | – | – | – | significantly more sensitive | –
4 | CC[C@H]1OC(=O)[C@H](C)[C@@H](O[C@H]2C[C@@](C)(OC)[C@@H](O)[C@H](C)O2)[C@H](C)[C@@H](O[C@@H]2O[C@H](C)C[C@H](N(C)C)[C@H]2O)[C@](C)(OC)C[C@@H](C)C(=O)[C@H](C)[C@@H](O)[C@]1(C)O [clarithromycin] | – | – | – | – | – | – | – | – | – | – | more susceptible
